pEC50, pIC50: −log10 of the molar value.
Experiments:
Plasmodium falciparum = test: MMV: Inhibition of Plasmodium falciparum 3D7 (EC50).; type: functional, organism-based
Trypanosoma cruzi = test: MMV: Inhibition of Trypanosoma cruzi (Tulahuen C4 LacZ) (Chagas in vitro).; type: functional, organism-based
[1] = test system: Trypanosoma brucei brucei; test: MMV: Inhibition of Trypanosoma brucei brucei (Squib 427) (HAT in vitro).; type: functional, organism-based
[2] = test system: Trypanosoma brucei rhodesiense; test: MMV: Inhibition of Trypanosoma brucei rhodesiense (STIB 900) (HAT in vitro).; type: functional, organism-based
Leishmania infantum = test: MMV: Inhibition of Leishmania infantum (MHOM/MA/BE/67) in vitro.; type: functional, organism-based
[3] = MMV: Cytotoxicity against human fibroblasts (MRC-5) cells.; details: MRC-5 cells (human fibroblasts)

Structure (SMILES)	pEC50 (Plasmodium falciparum)	pIC50 (Trypanosoma cruzi)	pIC50 [1]	pIC50 [2]	pIC50 (Leishmania infantum)	pIC50 [3]
CCN1CCCC1CNc1[nH]cnc2c3cc(Cl)ccc3nc1-2 (stereo unspecified)	6.66	< 4.49	< 4.49	< 4.49	4.79	< 4.49
COc1ccc(-c2c(C)nn3c(N)c(C#N)cnc23)cc1OC	6.32	< 4.49	< 4.49	< 4.49	< 4.49	4.56
COc1ccc2c(c1)C1(Nc3ccccc3-c3nc4ccccc4n31)C(=O)N2 (stereo unspecified)	6.03	< 4.49	< 4.49	< 4.49	< 4.49	< 4.49
CCOc1cc(CNC(C)C(O)c2ccccc2)cc(Cl)c1OCC (stereo unspecified)	5.91	4.60	4.94	5.06	4.78	< 4.49
C[n+]1c2ccccc2nc2ccc(NCCO)cc21	6.53	4.80	4.85	4.80	< 4.49	< 4.49
OC(CNCC1CCCO1)Cn1c2ccc(Cl)cc2c2cc(Cl)ccc21 (stereo unspecified)	5.97	4.72	5.00	5.21	4.79	< 4.49
Cc1cc(C)cc(Nc2cc(C)nc3nc(C(F)(F)F)nn23)c1	7.07	< 4.49	< 4.49	< 4.49	< 4.49	< 4.49
CCn1nc(-c2ccc(C(=O)OC)cc2)nc2c(=O)n(C)c(=O)nc1-2	6.16	6.09	6.55	6.10	5.39	5.45
CCOc1ccccc1CN1CCc2nc3cc(C(C)(C)C)nn3c(O)c2C1	6.00	< 4.49	4.54	< 4.49	< 4.49	< 4.49
Cc1sc(NC(=O)c2ccccc2)c(C(c2cccs2)N2CCN(c3ccccc3)CC2)c1C (stereo unspecified)	5.93	< 4.49	5.20	5.40	4.90	< 4.49
CCOC(=O)c1c(C)n(-c2ccccc2)c2ccc(OC(=O)c3cc(OC)c(OC)c(OC)c3)cc12	6.21	4.88	4.79	4.97	< 4.49	4.58
COc1cc(C(=O)Nc2nc3c(cc4c5c(cccc53)CC4)s2)cc(OC)c1OC	6.05	< 4.49	< 4.49	< 4.49	4.79	< 4.49
Cc1cc(N2CCCC2)nc(Nc2ccc(NC(=O)CCc3ccccc3)cc2)n1	5.97	6.00	5.37	6.06	5.92	5.27
O=C(NCC(c1ccsc1)N1CCCCCC1)c1ccc(C(F)(F)F)cc1 (stereo unspecified)	6.36	4.65	4.79	5.77	4.79	< 4.49
CC1(c2ccccc2)Nc2ccccc2-c2nc3ccccc3n21 (stereo unspecified)	5.76	4.72	4.77	4.99	< 4.49	< 4.49
COc1cccc(C2(C)Nc3ccccc3-c3nc4ccccc4n32)c1 (stereo unspecified)	5.94	4.87	4.82	4.84	< 4.49	4.58
O=C(NNc1cc(N2CCCC2)nc(N2CCCC2)n1)c1ccccc1	5.88	4.86	< 4.49	4.78	4.60	< 4.49
O=C(O)C1Cc2c([nH]c3ccccc23)C(c2ccc(Cl)cc2Cl)N1 (stereo unspecified)	6.46	< 4.49	< 4.49	< 4.49	< 4.49	< 4.49
COc1ccc2c(c1)OC(O)(C(F)(F)C(F)(F)F)CC2=O (stereo unspecified)	6.55	4.79	< 4.49	4.77	4.60	4.59
CCN(CC)CCNc1ncnc2c1[nH]c1ccc(Br)cc12	6.15	4.77	4.79	4.80	4.80	< 4.49
Cc1cc(N(C)C)nc(Nc2ccc(NC(=O)Nc3ccccc3)cc2)n1	5.94	5.99	5.26	5.90	5.36	4.62

Further lines, with some results ahead:

pEC50 (Plasmodium falciparum)	pIC50 (Trypanosoma cruzi)	pIC50 [1]	pIC50 [2]	pIC50 (Leishmania infantum)	Structure (SMILES)	pIC50 [3]
5.86	< 4.49	< 4.49	< 4.49	< 4.49	COc1cccc(Cn2c(Oc3ccccc3)nc3c2c(=O)n(C)c(=O)n3C)c1	< 4.49
5.91	5.35	5.40	5.96	5.39	N=c1n(CCN2CCCCC2)c2ccccc2n1CC(=O)c1ccc(Cl)c(Cl)c1	4.97
6.00	4.70	4.56	4.77	4.80	Nc1nc(Nc2cccc(F)c2)nc2ccccc12	< 4.49
5.98	< 4.49	4.93	4.79	< 4.49	CCOc1c(Cl)cc(CNCC(O)c2ccccc2)cc1OC (stereo unspecified)	< 4.49
6.16	< 4.49	< 4.49	< 4.49	< 4.49	COc1ccc2nc(C)cc(Nc3ccccc3O)c2c1	< 4.49
5.97	5.13	5.39	5.39	5.36	COc1ccc(-c2nc(N3CCN(C(=O)C4CCCCC4)CC3)c3c4c(sc3n2)CCCC4)cc1	< 4.49
6.02	< 4.49	< 4.49	< 4.49	4.80	O=C(NC1CCN(Cc2ccccc2)CC1)c1cc2nc(-c3ccc(Cl)s3)cc(C(F)(F)F)n2n1	< 4.49
5.99	5.87	5.40	5.40	4.79	Cc1sc(NC(=O)c2ccco2)c(C(c2cccnc2)N2CCC(Cc3ccccc3)CC2)c1C (stereo unspecified)	< 4.49
7.05	< 4.49	< 4.49	< 4.49	4.79	COc1ccc(-c2cc3c(SCC(=O)Nc4cc(C(F)(F)F)ccc4Cl)nccn3n2)cc1	< 4.49
7.03	< 4.49	< 4.49	< 4.49	< 4.49	Cc1ccc(-c2cc3c(SCC(=O)Nc4cc(C(F)(F)F)ccc4Cl)nccn3n2)cc1	< 4.49
6.02	< 4.49	< 4.49	< 4.49	4.79	Cc1cc(NC(=O)c2cccc(C(F)(F)F)c2)n(-c2nc(-c3ccc4c(c3)OCO4)cs2)n1	< 4.49
6.39	4.97	5.39	5.43	4.79	CCN(CC)CCNc1ncnc2c1[nH]c1ccc(Cl)cc12	< 4.49
5.92	4.51	4.84	4.96	4.67	CN1CCN(c2ncnc3c2[nH]c2ccc(Cl)cc23)CC1	< 4.49
6.04	4.89	5.40	5.45	4.92	COc1ccc(CCN2C(=O)c3[nH]nc(-c4cc(Cl)c(C)cc4O)c3C2c2ccccc2F)cc1 (stereo unspecified)	< 4.49
5.94	< 4.49	< 4.49	4.80	4.60	N#Cc1nc(Cc2cccc3ccccc23)oc1N1CCN(C(c2ccccc2)c2ccccc2)CC1	< 4.49
6.08	< 4.49	< 4.49	< 4.49	< 4.49	CC(C)CNC(=O)c1c(N)n(CCc2ccccc2F)c2nc3ccccc3nc12	< 4.49
5.94	4.91	5.40	5.39	5.20	CC(C)(C)CC(C)(C)NCC(O)COc1ccc(Cl)cc1Cl (stereo unspecified)	4.79
6.03	6.63	6.32	6.52	5.36	Cc1cccc(-n2ncc3c(O)nc(-n4nc(C)cc4NC(=O)c4cc5ccccc5o4)nc32)c1	6.19
6.45	< 4.49	< 4.49	< 4.49	< 4.49	CCOC(=O)c1cnc2ccc(CC)cc2c1O	< 4.49
6.62	< 4.49	< 4.49	< 4.49	< 4.49	Cc1cc(Nc2ccc3ccccc3c2)n2ncnc2n1	< 4.49
6.05	4.86	5.38	5.45	4.79	OC1=C2C(=Nc3ccccc3SC2c2ccccc2)c2ccccc21 (stereo unspecified)	4.81
6.07	4.88	4.85	5.17	5.36	COc1cccc(Nc2nc(NCCO)c3ccccc3n2)c1	4.58
6.00	5.41	6.15	6.45	5.53	COCCNCC(O)Cn1c2ccc(Cl)cc2c2cc(Cl)ccc21 (stereo unspecified)	5.32
6.67	< 4.49	< 4.49	< 4.49	< 4.49	Cc1cc(Nc2ccc(Cl)cc2)n2nc(C(F)(F)F)nc2n1	< 4.49
5.98	5.45	4.89	5.18	5.39	COc1cc2c(cc1OC)C1=NNC(=O)C1=NC(C)(C)C2	< 4.49

Reference: ChEMBL document CHEMBL2028040, “Malaria Box”
